Assay [1] concerns the target T1, (Oryctolagus cuniculus, UniProt Q6WQI8).
T1 construct: functional contraction assay (pA2)
T1 sequence (Q6WQI8 1-233): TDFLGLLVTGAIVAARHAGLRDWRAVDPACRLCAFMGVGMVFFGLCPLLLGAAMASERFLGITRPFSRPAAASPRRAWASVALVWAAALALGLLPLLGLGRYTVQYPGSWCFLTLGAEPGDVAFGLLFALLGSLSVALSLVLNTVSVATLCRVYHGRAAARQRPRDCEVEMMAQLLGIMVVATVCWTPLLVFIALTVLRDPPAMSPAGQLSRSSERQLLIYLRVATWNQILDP
Briefly: Test (a): rabbit aortic strip model, TXA2 or U46619 as agonist. The class given is cell-based. To be noted: comparison compound. As for the experimental part: (§1) (a) The rabbit aortic strip model devised by Piper and Vane (Nature, 1969, 223, 29-35) using as agonist a freshly prepared sample of TXA2, generated by addition of arachidonic acid (25 μg) to citrated, platelet rich rabbit plasma (250 μl ) and allowing the mixture to aggregate fully over 90 seconds before use; alternatively the TXA2 mimetic agent known as U46619 (described by R. L. Jones et alia in "Chemistry, Biochemistry and Pharmacological Activity of Prostanoids" edited by S. M. Roberts and F. Scheinmann, at page 211; Pergamon Press, 1979) may be used as the agonist;
(§2) Using the above test procedures (a)-(c), the following representative results have been obtained with the compounds of formula I (X=Y=H) wherein (i) R is isopropyl, (ii) R is t-butyl; or (iii) R is sec-butyl, respectively: […]

Assay [2] concerns TXA2. The assay is described as follows: TXA2 antagonist properties (test not specified; one or other of the standard tests). To be noted: qualitative statement. The text has this: As stated earlier, the acids of formula I are antagonists of one or more of the actions of TXA2, for example certain of its actions on blood platelets, the vasculature and/or the lung.
The target in assay [3] is T2, TXA2 (Oryctolagus cuniculus, UniProt Q6WQI8).
T2 construct: functional contraction assay (pA2)
T2 sequence (Q6WQI8 1-233): T1 sequence (Q6WQI8 1-233)
Briefly: Test (a): rabbit aortic strip model, TXA2 or U46619 as agonist. The class given is cell-based. The note with it: rabbit aortic strip, ±0.05. How it is done:
as §1, §2

Assay [4] deals with T3, U46619 stimulated platelet aggregation (Homo sapiens, UniProt P21731).
T3 construct: aggregating human, citrated, platelet-rich plasma; from tissue; host or cells: human citrated platelet-rich plasma (platelets)
T3 sequence (P21731 1-343): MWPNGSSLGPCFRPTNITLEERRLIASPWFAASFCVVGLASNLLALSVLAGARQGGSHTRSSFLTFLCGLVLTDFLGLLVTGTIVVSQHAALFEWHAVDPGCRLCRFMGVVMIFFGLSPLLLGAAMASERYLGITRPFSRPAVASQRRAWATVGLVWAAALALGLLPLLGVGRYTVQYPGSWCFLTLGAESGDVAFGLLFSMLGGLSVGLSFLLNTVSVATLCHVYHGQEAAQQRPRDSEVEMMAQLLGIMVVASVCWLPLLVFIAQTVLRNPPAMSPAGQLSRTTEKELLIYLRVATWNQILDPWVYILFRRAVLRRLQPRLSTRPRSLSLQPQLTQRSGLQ
The assay is described as follows: Test (b): blood platelet aggregation test, human citrated platelet-rich plasma, U46619 stimulated. The class given is cell-based.
Text: (b) a blood platelet aggregation test based on that described by Born (Nature, 1962, 194, 927-929) and involving:
(i) aggregating human, citrated, platelet-rich plasma by addition of the TXA2 mimetic agent U46619 so that a dose-response curve is generated;
(ii) generating a dose-response curve for U46619 stimulated platelet aggregation in the presence of increasing amounts of test compound (generally in the range 10^-5 M to 10^-10 M); and
(iii) calculating a KB value indicating potency of TXA2 antagonism for the test compound, averaged over several concentrations, from the calculated 50% response value for U46619 aggregation in the presence and absence of test compound; and
as §2

Assay [5] relates to U46619 induced bronchoconstriction. Briefly: Test (c): U46619 induced bronchoconstriction, Konzett-Rossler anaesthetised guinea-pig model. Type of assay: in vivo. The note with it: 2 hours after oral dosing at 0.05 mg/kg.
Text: (c) a bronchoconstriction test involving measuring the inhibition by a test compound of the bronchoconstriction induced in the Konzett-Rossler, anaesthetised guinea-pig model (as modified by Collier and James, Brit. J. Pharmacol., 1967, 30, 283-307) by intravenous administration of the TXA2 mimetic agent, U46619 and involving:
(i) obtaining a cumulative dose-response curve to U46619 induced bronchoconstriction by intravenous administration of constant volumes of increasing concentrations of U46619 (0.2-4 μg/kg) in physiological saline solution and expressing bronchoconstriction as the maximum of that theoretically obtainable with no air flow to the test animal;
(ii) generating a cumulative dose-response curve to U46619 induced bronchoconstriction at 30 minute intervals for 3 hours after oral dosing of test compound; and
(iii) calculating a dose-ratio for the test compound (that is the ratio of concentration of U46619 required to cause 50% bronchoconstriction in the presence and absence of test compound) indicating the potency of TXA2 antagonism.
as §2

Assay [6] concerns U46619 induced hypertension. The assay is described as follows: Test (d): U46619 induced hypertension in anaesthetised rats. Type of assay: in vivo, rat (Alderley Park strain). How it is done: (d) Male rats (Alderley Park strain) are anaesthetised with sodium pentobarbital and blood pressure is monitored at the carotid artery. The TXA2 mimetic agent U46619 is administered intravenously via the jugular vein at 5 μg/kg to induce a 20-30 mmHg (2640-3940 pascal) increase in systolic blood pressure. The process is repeated twice to ensure adequacy of response. A test compound is then administered either intravenously (via the jugular vein) or orally (via a cannula) directly into the stomach and the animal is challenged with U46619, five minutes after dosing with test compound and then successively every ten minutes until the hypertensive effect of U46619 is no longer blocked.
Similarly, using test procedure (d) referred to above, the following representative results were obtained on inhibition of U46619 induced hypertension with the compounds of formula I referred to above: […]

[7] abbreviates: 1 hour after oral dose of 0.5 mg/kg.

By pA2 is commonly meant a measure of antagonist potency on a negative log scale.

In assay [1], `CC(C)[C@H]1OC[C@@H](C/C=C\CCCC(=O)O)[C@@H](c2ccccc2)O1` (relative stereo) [5(Z)-7-([2,4,5-cis]-2-isopropyl-4-phenyl-1,3-dioxan-5-yl)heptenoic acid, reference compound] displayed a pA2 of 5.9. In addition, the TXA2 antagonist properties entry in assay [2] is reported as “signficantly lower TXA2 antagonist properties”.

As to `CC(C)[C@H]1OC[C@@H](C/C=C\CCC(=O)O)[C@@H](c2ccccc2O)O1` (relative stereo) [compound (i), 4(Z)-6-([2,4,5-cis]-4-o-hydroxyphenyl-2-isopropyl-1,3-dioxan-5-yl)hexenoicacid], the “pA2 (±0.05)” value in assay [3] is 7.71. For the same molecule, the Kb in assay [4] worked out at 17.9 nM. Further, the “dose ratio (U46619 bronchoconstriction)” value in assay [5] is greater than 75. Further, the “inhibition of U46619 induced hypertension” value (“inhibition” for short) in assay [6] (setting [7]) is greater than 70%.

As to `CC(C)(C)[C@H]1OC[C@@H](C/C=C\CCC(=O)O)[C@@H](c2ccccc2O)O1` (relative stereo) [compound (ii), 4(Z)-6-([2,4,5-cis]-2-t-butyl-4-o-hydroxyphenyl-1,3-dioxan-5-yl)hexenoic acid], in assay [3], the “pA2 (±0.05)” value is 7.86. Also, the Kb in assay [4] turned out to be 13.1 nM. For the same molecule, the “dose ratio (U46619 bronchoconstriction)” value in assay [5] is greater than 110. In assay [6] (1 hour after oral dose of 0.1 mg/kg), the “inhibition” value is on record as greater than 75%.

For `CCC(C)C1OCC(CC=CCCC(=O)O)C(c2ccccc2O)O1` (stereo not drawn) [compound (iii), 4(Z)-6-([2,4,5-cis-]-2-sec-butyl-4-o-hydroxyphenyl-1,3-dioxan-5-yl)hexenoic acid], the “pA2 (±0.05)” value in assay [3] is on record as 7.80. In addition, the Kb in assay [4] came to 13.4 nM. In addition, the “dose ratio (U46619 bronchoconstriction)” value in assay [5] was greater than 75. The “inhibition” value in assay [6] (setting [7]) is on record as greater than 70%.

The values above are taken from patent US4772625A, “1,3-dioxan-5-yl-hexenoic acids” (Imperial Chemical Industries PLC, priority 1985, dated 1988).
